# Laboratory results reported in patent US20230123334A1, “AMINO LIPID COMPOUND, PREPARATION METHOD THEREFOR, AND APPLICATION THEREOF” (SHENZHEN SHENXIN BIOTECHNOLOGY CO., LTD., priority 2020, published 2023).
# Tested on: HEK293 cells
# Assay: Preliminary screening as mRNA vectors, EGFP mRNA transfection of HEK293 cells
# Type: cell-based
# Conditions: EGFP mRNA 50 ng per well, 96-well plates; percentage of GFP fluorescent cells relative to total number of cells (Hoechst)
# How it was run: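 Screening format: EGFP mRNA transfection (50 ng/well) into HEK293 in 10% FBS-supplemented DMEM. Percent green fluorescent cells, normalised to Hoechst nuclear count, gave the value; Lipofectamine2000 was the reference transfectant.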
row,SMILES,Absolute mRNA transfection efficiency in HEK293 cells [%]
1,CCCCCCCCCCCCCCCCSc1nc(NCC2CCN(C)CC2)nc(SCCCCCCC)n1 [Compound D10S7S16],73.7
2,CCCCCCCCCCCCCCCCCCSc1nc(NCC2CCN(C)CC2)nc(SCCCCCCC)n1 [Compound D10S7S18],90.5
3,CCCCCCCCSc1nc(NCCCCCC)nc(NCC2CCN(C)CC2)n1 [Compound D10S8N6],0.4
4,CCCCCCCCSc1nc(NCCCCCCC)nc(NCC2CCN(C)CC2)n1 [Compound D10S8N7],0.3
5,CCCCCCCCNc1nc(NCC2CCN(C)CC2)nc(SCCCCCCCC)n1 [Compound D10S8N8],1.2
6,CCCCCCCCCNc1nc(NCC2CCN(C)CC2)nc(SCCCCCCCC)n1 [Compound D10S8N9],30.2
7,CCCCCCCCCCCNc1nc(NCC2CCN(C)CC2)nc(SCCCCCCCC)n1 [Compound D10S8N11],81.5
8,CCCCCCCCCCCCNc1nc(NCC2CCN(C)CC2)nc(SCCCCCCCC)n1 [Compound D10S8N12],73.1
9,CCCCCCCCCCCCCNc1nc(NCC2CCN(C)CC2)nc(SCCCCCCCC)n1 [Compound D10S8N13],75.0
10,CCCCCCCCCCCCCCCNc1nc(NCC2CCN(C)CC2)nc(SCCCCCCCC)n1 [Compound D10S8N15],53.3
11,CCCCCCCCCCCCCCCCNc1nc(NCC2CCN(C)CC2)nc(SCCCCCCCC)n1 [Compound D10S8N16],36.4
12,CCCCCCCCCCCCCCCCCCNc1nc(NCC2CCN(C)CC2)nc(SCCCCCCCC)n1 [Compound D10S8N18],20.1
13,CCCCCCCCSc1nc(NCC2CCN(C)CC2)nc(SCCCCCCCC)n1 [Compound D10S8S8],50.8
14,CCCCCCCCCSc1nc(NCC2CCN(C)CC2)nc(SCCCCCCCC)n1 [Compound D10S8S9],37.6
15,CCCCCCCCCCSc1nc(NCC2CCN(C)CC2)nc(SCCCCCCCC)n1 [Compound D10S8S10],74.2
16,CCCCCCCCCCCSc1nc(NCC2CCN(C)CC2)nc(SCCCCCCCC)n1 [Compound D10S8S11],67.0
17,CCCCCCCCCCCCSc1nc(NCC2CCN(C)CC2)nc(SCCCCCCCC)n1 [Compound D10S8S12],67.9
18,CCCCCCCCCSc1nc(NCCCCCC)nc(NCC2CCN(C)CC2)n1 [Compound D10S9N6],0.6
19,CCCCCCCCCSc1nc(NCCCCCCC)nc(NCC2CCN(C)CC2)n1 [Compound D10S9N7],0.9
20,CCCCCCCCCSc1nc(NCCCCCCCC)nc(NCC2CCN(C)CC2)n1 [Compound D10S9N8],16.3
21,CCCCCCCCCNc1nc(NCC2CCN(C)CC2)nc(SCCCCCCCCC)n1 [Compound D10S9N9],70.0
22,CCCCCCCCCCCNc1nc(NCC2CCN(C)CC2)nc(SCCCCCCCCC)n1 [Compound D10S9N11],66.0
23,CCCCCCCCCCCCNc1nc(NCC2CCN(C)CC2)nc(SCCCCCCCCC)n1 [Compound D10S9N12],57.0
24,CCCCCCCCCCCCCNc1nc(NCC2CCN(C)CC2)nc(SCCCCCCCCC)n1 [Compound D10S9N13],75.8
25,CCCCCCCCCCCCCCCNc1nc(NCC2CCN(C)CC2)nc(SCCCCCCCCC)n1 [Compound D10S9N15],17.5
